{"source": "paper PMC4062389", "about": "“LASSBio-1135: A Dual TRPV1 Antagonist and Anti-TNF-Alpha Compound Orally Effective in Models of Inflammatory and Neuropathic Pain” (PLoS ONE, 2014)", "target": "TRPV1 (Rattus norvegicus, UniProt O35433)", "sequence (O35433 whole entry)": "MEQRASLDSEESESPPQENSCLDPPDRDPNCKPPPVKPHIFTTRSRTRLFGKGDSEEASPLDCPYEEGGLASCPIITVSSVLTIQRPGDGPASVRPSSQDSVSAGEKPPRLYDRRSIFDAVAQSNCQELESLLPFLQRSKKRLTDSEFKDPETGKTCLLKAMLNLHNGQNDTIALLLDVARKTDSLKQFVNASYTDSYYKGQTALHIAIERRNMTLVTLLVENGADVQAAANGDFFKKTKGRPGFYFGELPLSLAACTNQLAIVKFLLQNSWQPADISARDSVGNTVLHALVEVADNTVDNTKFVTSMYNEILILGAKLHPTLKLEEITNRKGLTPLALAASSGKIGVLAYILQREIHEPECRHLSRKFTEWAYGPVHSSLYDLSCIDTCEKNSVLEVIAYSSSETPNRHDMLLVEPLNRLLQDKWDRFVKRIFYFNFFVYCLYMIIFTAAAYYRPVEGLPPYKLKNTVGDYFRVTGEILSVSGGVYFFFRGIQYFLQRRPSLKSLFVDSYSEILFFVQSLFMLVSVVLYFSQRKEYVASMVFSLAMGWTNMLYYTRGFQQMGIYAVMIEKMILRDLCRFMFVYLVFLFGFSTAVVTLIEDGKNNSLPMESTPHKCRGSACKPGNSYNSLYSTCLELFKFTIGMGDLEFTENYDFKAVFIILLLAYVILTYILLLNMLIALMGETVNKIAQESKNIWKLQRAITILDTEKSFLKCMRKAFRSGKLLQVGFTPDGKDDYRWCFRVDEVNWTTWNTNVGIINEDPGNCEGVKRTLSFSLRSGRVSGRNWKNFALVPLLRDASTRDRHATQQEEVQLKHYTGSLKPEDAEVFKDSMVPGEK", "test": "two-electrode voltage clamp in Xenopus oocytes injected with rat TRPV1 cRNA; inhibition of […] capsaicin current", "format": "cell-based"}
{"substance": "LASSBio-1135", "values": [{"measurement": "IC50", "result": 580, "unit": "nM"}]}
